“Also recorded” adds a separate entry of the source.
Tests used:
Type in all cases: cell-based, human
KBM7 cells [1] = tested on: KBM7 cells
KBM7 cells [2] = tested on: KBM7 cells; remark: listed apart in the source
KBM7 cells [3] = tested on: KBM7 cells; remark: listed apart in the source

**Q.** TRAIL was tested. Which Cell viability (KBM7 cells [1]) did it give?
**A.** decreased dramatically

**Q.** Which “sensitivity to Gleevec (apoptosis)” value (KBM7 cells [2]) does the source give for `Cc1ccc(NC(=O)c2ccc(CN3CCN(C)CC3)cc2)cc1Nc1nccc(-c2cccnc2)n1` [Gleevec, imatinib] here?
**A.** very sensitive; also recorded: sensitive

**Q.** polybrene was tested. Which infection efficiency (KBM7 cells [3]) did it give?
**A.** 33%

**Q.** With protamine sulphate as the compound, how does the infection efficiency (KBM7 cells [3]) read?
**A.** 44%

Source: US12577587B2 (priority 2009, dated 2026)
